{
  "source": "patent US10626094B2",
  "about": "(La Jolla Institute of Allergy & Immunology, priority 2014, dated 2020)",
  "key": {"[1]": {"test": "plasma stability, human plasma", "type": "in vitro ADME", "text": "Plasma stability is a measure of the stability of small molecules and peptides in plasma and is an important parameter, which can strongly influence the in vivo efficacy of a test compound. Drug candidates are exposed to enzymatic processes (proteinases. esterases) in plasma, and they can undergo intramolecular rearrangement or bind irreversibly (covalently) to proteins."}, "[2]": {"test": "hepatic microsomal stability, human liver microsomes", "type": "in vitro ADME", "text": "In the course of this investigation many compounds with similar potencies in the LMPTP (OMFP) assay were found. In order to determine which compound would be the best candidate for in vivo studies, an abbreviated ADME panel was ran on these compounds, a tabulation of the most interesting data on this set of compounds is illustrated in Table 3 below. From the hepatic microsome stability data the candidate selected for in vivo studies was Compound D1.\nThe microsomal stability assay is commonly used to rank compounds according to their metabolic stability. This assay addresses the pharmacologic question of how long the parent compound will remain circulating in plasma within the body."}, "[3]": {"target": "LMPTP-A (Low Molecular Weight Protein Tyrosine Phosphatase-A) enzyme (Homo sapiens (Human), UniProt P24666)", "sequence (P24666 whole entry)": "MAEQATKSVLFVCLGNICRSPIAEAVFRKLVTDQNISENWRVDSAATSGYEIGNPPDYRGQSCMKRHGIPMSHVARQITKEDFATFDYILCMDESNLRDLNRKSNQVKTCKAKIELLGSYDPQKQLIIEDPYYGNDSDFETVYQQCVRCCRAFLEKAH", "test": "LMPTP primary screening / LMPTP (OMFP) enzyme inhibition assay, fluorescence intensity", "type": "biochemical", "procedure,_shortened": "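Single-concentration screen, test compounds 20 μM final, […]. Enzyme (0.625 nM) and OMFP (400 μM) react 50 min at room temp, dark, in Bis-Tris buffer pH 6.0 containing DTT 1 mM and Triton X-100 0.01%. Read-out: fluorescence intensity.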"}},
  "note": "Where two headings read alike, the source gives them in different places.",
  "data": [
    {"smiles": "COc1ccc(-c2cc(NCCCN3CCCCC3)c3ccccc3n2)cc1", "note": "[Compound D1, 2-(4-methoxyphenyl)-N-(3-(piperidin-1-yl)propyl)quinolin-4-amine]", "values": [
      {"measurement": "Plasma Stability % Remaining @ 3 hrs", "setting": "[1]; Human plasma, 3 hrs", "result": 89.03, "unit": "%"},
      {"measurement": "plasma stability", "setting": "[1]; human plasma", "result": "good stability"},
      {"measurement": "Hepatic Microsome Stability % Remaining @ 1 hr", "setting": "[2]; Human microsomes, 1 hr", "result": 61.56, "unit": "%"},
      {"measurement": "microsomal stability", "setting": "[2]; human liver microsomes after 1 hour", "result": "moderate stability"},
      {"measurement": "IC50", "setting": "[3]; LMPTP-A, OMFP substrate, method of Example 2, read-out: IC50", "result": "801 to 5000", "unit": "nM"},
      {"measurement": "IC50", "setting": "[3]; Table 2 quinoline series, S sample (synthesized de novo), read-out: LMPTP (OMFP) (IC50)", "result": 1680, "unit": "nM"},
      {"measurement": "IC50", "setting": "[3]; Table 5, n = 4, AID686962, AID743307, read-out: LMPTP IC50", "result": "1680 ± 150", "unit": "nM"}
    ]}
  ]
}
